For the series, the system named is mouse plasma stability, LC-MS/MS, 48 h. The experiment in a line: Inhibitors of 12-hLO: Mouse Plasma Stability Profiling. To be noted: at 2 µM; active compounds read high. The text has this:
Assay Provider: Holman, T.R., University of California, Santa Cruz Grant #: MH08128301 Screening Center PI: Austin, C.P. Screening Center: NIH Chemical Genomics Center [NCGC] Human lipoxygenase 12hLO is a member of the closely related lipoxygenase family of enzymes which catalyze the site-specific oxidation of arachidonic acid to various hormone precursor molecules and as such is a candidate for drug development in a variety of disease areas, such as cancer and inflammation. After qHTS, hits were confirmed in follow-up assays, and leads were optimized through SAR. The resulting lead compound was further characterized through a battery ADME-Tox experiments, and this assay describes its stability in mouse plasma. The stability of the lead compound in […] is tested because this parameter has a significant impact on many ADME-concerned properties of drugs, such as uptake, distribution, transport, and eventually bioavailability.
2microM of compound is incubated in PBS buffer at pH 7; the reference compound is procaine. Compounds are incubated at 37 deg C for the pre-determined time periods and the when aliquots are removed. Samples are analyzed with LC-MS/MS.

In the case of `CC(=O)NC(c1cccs1)c1cc(Br)c2cccnc2c1O` (stereo unspecified), the percent remaining is 98.3%.

Values taken from PubChem BioAssay AID504610 (National Center for Advancing Translational Sciences (NCATS), 2011).
